From US20240190860A1, “8-CYCLO-SUBSTITUTED QUINAZOLINE DERIVATIVES AS LPA RECEPTOR 2 INHIBITORS” (CHIESI FARMACEUTICI S.p.A., priority 2021, published 2024)

Biological target: T1, human recombinant LPA2 expressed in CHO cells (Homo sapiens, UniProt Q9HBW0)
T1 construct: expressed in transfected cells; host or cells: CHO cells (CHO-hLPA2 cell line)
Experiment: FLIPR calcium mobilization assay, LPA2 antagonism in CHO-hLPA2 cells
Format: cell-based
Conditions: CHO-hLPA2 cells, inhibition of LPA EC80 Ca2+ response, 30 min pre-incubation; read-out: LPA2 IC50
Experimental: The effectiveness of compounds of the present invention as LPA2 antagonist can be determined at the human recombinant LPA2 expressed in CHO cells, using a FLIPR assay in 384 well format.
CHO-hLPA2 cell lines are cultured in a humidified incubator at 5% C02 in DMEM/F-12 (1:1) MIXTURE with 2 mM Glutamax, supplemented with 10% of Foetal Bovine Serum, 1 mM Sodium Pyruvate, 11 mM Hepes and 1× Penicillin/Streptomycin. CHO hLPA2 cells are seeded into black walled clear-bottom 384-well plates (#781091, Greiner Bio-One GmbH) at a density of 7,500 cells per well in 50 μl culture media and grown overnight in a 37° C. humidified CO2-incubator. Serial dilutions (1:3 or 1:4, 11 points CRC) of compounds are performed in 100% DMSO at 200× the final concentration. The compounds are diluted 1:50 prior to the experiment with Assay Buffer (20 mM HEPES, 145 mM NaCl, 5 mM KCl, 5.5 mM glucose, 1 mM MgCl2 and 2 mM CaCl2, pH 7.4 containing 0.01% Pluronic F-127) to obtain a solution corresponding to […] the final concentration in the assay (4×, 2% DMSO). The final concentration of DMSO in the assay will be 0.5% in each well. Medium is removed by aspiration and cells are then incubated with 30 μl of a loading solution containing 5 μM of the cytoplasmic Ca2+ indicator Cal-520 AM in Assay Buffer containing 2.5 mM probenecid for 30 min at 37° C. incubator (cell loading). The loaded cell plates are transferred into the FLIPR instrument and calcium responses are monitored during the on-line addition protocols. For testing of compounds, after the cell loading, 10 μl/well of 4× antagonists' solution was added onto the cells. After 30 min pre-incubation (at 37° C.), 10 μl/well of 5× concentrated LPA EC80 was added and Ca2+ mobilization responses was followed during the on-line addition protocol. Intracellular peak fluorescence values subtracted by baseline fluorescence are exported and analysed to determine IC50 values, respectively. The calcium response is expressed as percentage of the maximal inhibition of the EC80 agonist response.
The raw data (peak height expressed as relative fluorescence units) are normalized and transformed into “percent of inhibition”. Curve fitting and pIC50 (−LogIC50) estimations are carried out using a four-parameter logistic model using XLfit Software.

T1 sequence (Q9HBW0 whole entry): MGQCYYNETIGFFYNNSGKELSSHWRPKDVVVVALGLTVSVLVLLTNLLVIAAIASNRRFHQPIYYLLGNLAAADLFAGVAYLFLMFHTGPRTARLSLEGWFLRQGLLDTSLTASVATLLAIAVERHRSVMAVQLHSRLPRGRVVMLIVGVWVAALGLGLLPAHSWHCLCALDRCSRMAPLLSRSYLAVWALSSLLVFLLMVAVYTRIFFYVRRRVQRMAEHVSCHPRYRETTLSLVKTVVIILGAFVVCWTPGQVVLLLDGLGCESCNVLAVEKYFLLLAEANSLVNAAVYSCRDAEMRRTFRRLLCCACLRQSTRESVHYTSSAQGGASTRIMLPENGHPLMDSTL

SMILES	IC50 [nM]
COC(=O)Nc1nc(C)c(S(=O)(=O)N2CCN(C[C@H](C)Nc3ncnc4c(-c5cccnc5C)cccc34)CC2)s1 [Example 48, methyl N-[4-methyl-5-({4-[(2S)-2-{[8-(2-methylpyridin-3-yl)quinazolin-4-yl]amino}propyl]piperazin-1-yl}sulfonyl)-1,3-thiazol-2-yl]carbamate]	< 10
C[C@@H](CN1CCN(S(=O)(=O)c2ccc3[nH]c(=O)[nH]c(=O)c3c2)CC1)Nc1ncnc2c(-c3cccnc3)cccc12 [Example 51, 6-({4-[(2S)-2-{[8-(pyridin-3-yl)quinazolin-4-yl]amino}propyl]piperazin-1-yl}sulfonyl)-1,2,3,4-tetrahydroquinazoline-2,4-dione]	< 10
C[C@@H](CN1CCN(S(=O)(=O)c2ccc(F)c(F)c2)CC1)Nc1ncnc2c(-c3cccnc3)cccc12 [Example 52, N-[(2S)-1-[4-(3,4-difluorobenzenesulfonyl)piperazin-1-yl]propan-2-yl]-8-(pyridin-3-yl)quinazolin-4-amine]	10 to 100
COC(=O)Nc1nc(C)c(S(=O)(=O)N2CCN(C[C@H](C)Nc3ncnc4c(-c5cncc(CN(C)C)c5)cccc34)CC2)s1 [Example 55, methyl N-[5-({4-[(2S)-2-[(8-{5-[(dimethylamino)methyl]pyridin-3-yl}quinazolin-4-yl)amino]propyl]piperazin-1-yl}sulfonyl)-4-methyl-1,3-thiazol-2-yl]carbamate]	< 10
COC(=O)Nc1nc(C)c(S(=O)(=O)N2CCN(C[C@H](C)Nc3ncnc4c(-c5ccc6c(c5)CNC6)cccc34)CC2)s1 [Example 57, methyl N-[5-({4-[(2S)-2-{[8-(2,3-dihydro-1H-isoindol-5-yl)quinazolin-4-yl]amino}propyl]piperazin-1-yl}sulfonyl)-4-methyl-1,3-thiazol-2-yl]carbamate]	< 10
COC(=O)Nc1nc(C)c(S(=O)(=O)N2CCN(C[C@H](C)Nc3ncnc4c(-c5cnn(CCN(C)C)c5)cccc34)CC2)s1 [Example 58, methyl N-[5-({4-[(2S)-2-[(8-{1-[2-(dimethylamino)ethyl]-1H-pyrazol-4-yl}quinazolin-4-yl)amino]propyl]piperazin-1-yl}sulfonyl)-4-methyl-1,3-thiazol-2-yl]carbamate]	< 10
C[C@@H](CN1CCN(S(=O)(=O)c2ccc3[nH]c(=O)cnc3c2)CC1)Nc1ncnc2c(-c3cccnc3)cccc12 [Example 59, 6-({4-[(2S)-2-{[8-(pyridin-3-yl)quinazolin-4-yl]amino}propyl]piperazin-1-yl}sulfonyl)-1,2-dihydroquinoxalin-2-one]	10 to 100
COC(=O)Nc1nc(C)c(S(=O)(=O)N2CCN(C[C@H](C)Nc3ncnc4c(-c5ccc(CN(C)C)nc5)cccc34)CC2)s1 [Example 60, methyl N-[5-({4-[(2S)-2-[(8-{6-[(dimethylamino)methyl]pyridin-3-yl}quinazolin-4-yl)amino]propyl]piperazin-1-yl}sulfonyl)-4-methyl-1,3-thiazol-2-yl]carbamate]	< 10
COC(=O)Nc1nc(C)c(S(=O)(=O)N2CCN(C[C@H](C)Nc3ncnc4c(-c5cn(C)nc5C)cccc34)CC2)s1 [Example 63, methyl N-[5-({4-[(2S)-2-{[8-(1,3-dimethyl-1H-pyrazol-4-yl)quinazolin-4-yl]amino}propyl]piperazin-1-yl}sulfonyl)-4-methyl-1,3-thiazol-2-yl]carbamate]	< 10
COC(=O)Nc1nc(C)c(S(=O)(=O)N2CCN(C[C@H](C)Nc3ncnc4c(-c5cnn(C)c5)cccc34)CC2)s1 [Example 65, methyl N-[4-methyl-5-({4-[(2S)-2-{[8-(1-methyl-1H-pyrazol-4-yl)quinazolin-4-yl]amino}propyl]piperazin-1-yl}sulfonyl)-1,3-thiazol-2-yl]carbamate]	< 10
C[C@@H](CN1CCN(S(=O)(=O)c2ccc3c(c2)CC(=O)N3)CC1)Nc1ncnc2c(-c3cccnc3)cccc12 [Example 66, 5-({4-[(2S)-2-{[8-(pyridin-3-yl)quinazolin-4-yl]amino}propyl]piperazin-1-yl}sulfonyl)-2,3-dihydro-1H-indol-2-one]	10 to 100
COC(=O)Nc1nc(C)c(S(=O)(=O)N2CCN(C[C@H](C)Nc3ncnc4c(-c5cncc(N6CCN(C)CC6)c5)cccc34)CC2)s1 [Example 67, methyl N-[4-methyl-5-({4-[(2S)-2-({8-[5-(4-methylpiperazin-1-yl)pyridin-3-yl]quinazolin-4-yl}amino)propyl]piperazin-1-yl}sulfonyl)-1,3-thiazol-2-yl]carbamate]	< 10

Other lines, results leading:

IC50 [nM]	SMILES
10 to 100	COCC(=O)Nc1ncc(S(=O)(=O)N2CCN(C[C@H](C)Nc3ncnc4c(-c5cccnc5)cccc34)CC2)s1 [Example 49, 2-methoxy-N-[5-({4-[(2S)-2-{[8-(pyridin-3-yl)quinazolin-4-yl]amino}propyl]piperazin-1-yl}sulfonyl)-1,3-thiazol-2-yl]acetamide]
< 10	CC(=O)Nc1cc(F)c(S(=O)(=O)N2CCN(C[C@H](C)Nc3ncnc4c(-c5cccc(CN(C)C)c5)cccc34)CC2)cc1C [Example 53, N-[4-({4-[(2S)-2-[(8-{3-[(dimethylamino)methyl]phenyl}quinazolin-4-yl)amino]propyl]piperazin-1-yl}sulfonyl)-5-fluoro-2-methylphenyl]acetamide]
< 10	CC(=O)N1CCc2cc(S(=O)(=O)N3CCN(C[C@H](C)Nc4ncnc5c(-c6cccc(CN(C)C)c6)cccc45)CC3)ccc21 [Example 54, 1-[5-({4-[(2S)-2-[(8-{3-[(dimethylamino)methyl]phenyl}quinazolin-4-yl)amino]propyl]piperazin-1-yl}sulfonyl)-2,3-dihydro-1H-indol-1-yl]ethan-1-one]
10 to 100	COC(=O)Nc1nc(C)c(S(=O)(=O)N2CCN(C[C@H](C)Nc3ncnc4c(-c5ccc(N)nc5)cccc34)CC2)s1 [Example 56, methyl N-[5-({4-[(2S)-2-{[8-(6-aminopyridin-3-yl)quinazolin-4-yl]amino}propyl]piperazin-1-yl}sulfonyl)-4-methyl-1,3-thiazol-2-yl]carbamate]
< 10	COC(=O)Nc1nc(C)c(S(=O)(=O)N2CCN(C[C@H](C)Nc3ncnc4c(-c5cncc(N)c5)cccc34)CC2)s1 [Example 61, methyl N-[5-({4-[(2S)-2-{[8-(5-aminopyridin-3-yl)quinazolin-4-yl]amino}propyl]piperazin-1-yl}sulfonyl)-4-methyl-1,3-thiazol-2-yl]carbamate]
< 10	COC(=O)Nc1nc(C)c(S(=O)(=O)N2CCN(C[C@H](C)Nc3ncnc4c(-c5cnn(C)c5C)cccc34)CC2)s1 [Example 64, methyl N-[5-({4-[(2S)-2-{[8-(1,5-dimethyl-1H-pyrazol-4-yl)quinazolin-4-yl]amino}propyl]piperazin-1-yl}sulfonyl)-4-methyl-1,3-thiazol-2-yl]carbamate]
< 10	CC(=O)N1CCc2cc(S(=O)(=O)N3CCN(C[C@H](C)Nc4ncnc5c(-c6cn(C)nc6C(F)(F)F)cccc45)CC3)ccc21 [Example 68, 1-[5-({4-[(2S)-2-({8-[1-methyl-3-(trifluoromethyl)-1H-pyrazol-4-yl]quinazolin-4-yl}amino)propyl]piperazin-1-yl}sulfonyl)-2,3-dihydro-1H-indol-1-yl]ethan-1-one]
< 10	CC(=O)N1CCc2cc(S(=O)(=O)N3CCN(C[C@H](C)Nc4ncnc5c(-c6ccc(C)nc6)cccc45)CC3)ccc21 [Example 69, 1-[5-({4-[(2S)-2-{[8-(6-methylpyridin-3-yl)quinazolin-4-yl]amino}propyl]piperazin-1-yl}sulfonyl)-2,3-dihydro-1H-indol-1-yl}ethan-1-one]
< 10	COC(=O)Nc1nc(C)c(S(=O)(=O)N2CCN(C[C@H](C)Nc3ncnc4c(-c5cccc(C)n5)cccc34)CC2)s1 [Example 71, methyl N-[4-methyl-5-({4-[(2S)-2-{[8-(6-methylpyridin-2-yl)quinazolin-4-yl]amino}propyl]piperazin-1-yl}sulfonyl)-1,3-thiazol-2-yl]carbamate]
< 10	COC(=O)Nc1nc(C)c(S(=O)(=O)N2CCN(C[C@H](C)Nc3ncnc4c(-c5cncc(NC=O)c5)cccc34)CC2)s1 [Example 72, methyl N-[5-({4-[(2S)-2-{[8-(5-formamidopyridin-3-yl)quinazolin-4-yl]amino}propyl]piperazin-1-yl}sulfonyl)-4-methyl-1,3-thiazol-2-yl]carbamate]
